Assay results reported in patent US20080219975A1, “VEGFR3 INHIBITORS” (priority 2006, published 2008).

Experiments:
[1] = test system: VEGFR1 mediated VEGF signaling; assay: VEGF stimulation of Erk1/2 in HMVEC-d cells; assay type: cell-based, human; conditions: 5 μM, 10 ng/ml VEGF (FIG. 2)
Experimental: (§1) HMVEC-d cells (Cambrex) were cultured at 37 C in 5% CO2 in appropriate serum containing medium (Cambrex) on fibronectin coated 12-well plates (BD Biocoat, Becton Dickinson) for 4 days. Cells were then starved for 16 hours in the same medium as before, but lacking serum and containing SITE+3 (Invitrogen) instead. Cells were then preincubated with DMSO at 0.2% (the solvent) or 5 uM Compound 2 for 60 minutes and then either 10 ng/ml VEGF or 100 ng/ml VEGF-C (R&D systems) was added to the cells. Before, or 10 and 30 minutes after stimulation, the medium was removed, cells were rinsed with ice-cold PBS containing 0.1 mM sodiumorthovanadate and lysed in M-PER buffer (PIERCE) containing 0.1% SDS, and 1× phosphatase and protease inhibitors (HALT, PIERCE). Cells were scraped off the plates and incubated in lysis buffer for 30 minutes on ice and then centrifuged at 4° C. for 10 min at 16000×g. Lysates were quantified using the BCA reagent according to the manufacturer's instructions (PIERCE), and […] of total protein was loaded on SDS-polyacrylamide gels (NUPAGE, Invitrogen). Electrophoresis and blotting onto PVDF membranes was all performed using reagents from the NUPAGE system, according to the manufacturer's instructions. […]

Xenopus tadpoles = assay: VEGFR3 in vivo Xenopus assay (lymphangiogenesis, LEC migration); conditions: for % Relative Area 2-3: LECs in area 2-3 relative to vehicle control; for % Relative Max Migration: furthest LEC migration from PCV relative to vehicle control; for % embryos with reduced migration: stages 35-36 tadpoles
Experimental: Xenopus tadpoles were used as a model (Ny et al Nature Medicine 11: 998-1004 (2005)) to analyze the effects of Compound 2 on lymphangiogenesis. The compound was administered daily in a dose dependent manner, with vehicle controls, to the medium of the Xenopus tadpoles starting at stage 26-28, i.e., before the formation of both blood and lymphatic vessels. The effects of the compound was monitored by “live analysis”, i.e. live embryos were examined 4 days later for evidence of lymph-vascular defects by trained observers. As an additional means of confirming the results, in a limited number of experiments, tadpoles were fixed at stage 35-36 and in situ hybridizations for Prox1 were performed to assess migration of lymphatic endothelial cells (LECs) from the posterior cardinal vein (PCV) to their dorsal endpoint, this reflecting an essential step in lymphangiogenesis. Under normal circumstances, LECs arise from the region of the PCV, accumulate there, and during the study period, they migrate dorsally to defined “areas” (Area 1 to Area 2 and Area 3), where they then further migrate rostrally and caudally to form the lymphatic vasculature in the tail and trunk. Defects in migration of the LECs from the PCV was quantified by determining the maximal migration of the cells, and by counting the number of cells in these different regions in the tail.

[2] = test system: VEGFR3 dependent VEGF-C stimulation of Erk1/2; assay: Inhibition of Erk activation induced by VEGF-C in HMVEC-d cells; assay type: cell-based, human; conditions: 5 μM, 100 ng/ml VEGF-C (FIG. 2)
Experimental: as §1

VEGFR3 [3] = target: T1, VEGFR3 (Homo sapiens, UniProt P35916); assay: VEGFR3 in vitro kinase assay; assay type: biochemical; conditions: 10 μM ATP
T1 sequence (P35916 25-1363): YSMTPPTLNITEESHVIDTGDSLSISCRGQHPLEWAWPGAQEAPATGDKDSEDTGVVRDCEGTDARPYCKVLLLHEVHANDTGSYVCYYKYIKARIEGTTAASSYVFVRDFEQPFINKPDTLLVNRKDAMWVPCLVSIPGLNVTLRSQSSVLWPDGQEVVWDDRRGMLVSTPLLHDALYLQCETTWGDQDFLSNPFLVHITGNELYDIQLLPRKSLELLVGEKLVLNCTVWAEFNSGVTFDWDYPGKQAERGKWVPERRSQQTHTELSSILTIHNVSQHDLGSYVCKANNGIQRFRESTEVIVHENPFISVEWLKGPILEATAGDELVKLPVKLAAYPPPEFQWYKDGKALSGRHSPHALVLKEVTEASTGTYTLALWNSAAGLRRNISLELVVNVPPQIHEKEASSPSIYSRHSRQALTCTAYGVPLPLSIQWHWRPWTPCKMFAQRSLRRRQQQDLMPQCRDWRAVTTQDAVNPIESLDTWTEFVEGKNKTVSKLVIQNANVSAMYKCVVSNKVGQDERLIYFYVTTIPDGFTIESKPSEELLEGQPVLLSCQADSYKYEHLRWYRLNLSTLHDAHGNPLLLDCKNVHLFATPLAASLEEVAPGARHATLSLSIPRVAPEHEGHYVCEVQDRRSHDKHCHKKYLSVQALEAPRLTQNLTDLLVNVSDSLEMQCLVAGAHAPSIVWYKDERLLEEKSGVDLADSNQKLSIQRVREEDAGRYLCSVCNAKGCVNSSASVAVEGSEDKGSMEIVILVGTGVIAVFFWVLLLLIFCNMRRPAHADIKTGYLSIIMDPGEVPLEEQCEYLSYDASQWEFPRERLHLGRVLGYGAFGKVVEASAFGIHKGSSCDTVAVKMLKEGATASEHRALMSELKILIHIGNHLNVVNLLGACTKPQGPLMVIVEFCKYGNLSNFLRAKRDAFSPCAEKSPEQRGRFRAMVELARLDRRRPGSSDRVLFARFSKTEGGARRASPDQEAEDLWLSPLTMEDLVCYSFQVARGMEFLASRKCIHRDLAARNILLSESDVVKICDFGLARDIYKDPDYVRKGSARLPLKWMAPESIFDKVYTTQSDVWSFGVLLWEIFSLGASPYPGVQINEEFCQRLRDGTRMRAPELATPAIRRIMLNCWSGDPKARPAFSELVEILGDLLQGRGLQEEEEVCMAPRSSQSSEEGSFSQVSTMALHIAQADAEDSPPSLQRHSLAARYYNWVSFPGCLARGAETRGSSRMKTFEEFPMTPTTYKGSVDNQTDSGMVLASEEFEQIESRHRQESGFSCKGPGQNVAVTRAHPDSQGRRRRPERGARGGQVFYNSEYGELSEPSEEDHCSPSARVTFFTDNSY
Experimental: The VEGFR3 kinase reaction was performed at 30° C. for 10 minutes in a 96-well microtiterplate. The 25 μl reaction volume contained 8 mM MOPS pH 7, 200 μM EDTA, 10 mM MgAc, 10 μM unlabeled ATP, […] AT33P, 500 μM JAK3-tide (Ac-GGEEEEYFELVKKKK-NH2), 25 ng VEGFR3 and 2% compound in 100% DMSO.
The reaction was stopped by adding 5 μl of a 3% phosphoric acid solution. 10 μl of the reaction mixture was then spotted onto a Filtermat P30 filter (Wallac) and washed 3 times for 5 min. in 0.75% phosphoric acid and 1 time for 2 min. in methanol prior to transferring to a sealable plastic bag containing 4 ml of scintillation liquid and reading in a scintillation counter.

VEGFR3 [4] = target: T1, VEGFR3; assay: Inhibition of VEGF-C induced VEGFR-3 phosphorylation in PAE cells stably expressing human VEGFR-3; assay type: cell-based; set-up: expressed in transfected cells; host or cells: porcine aortic endothelial (PAE) cells; conditions: PAE cells expressing human VEGFR-3, 100 ng/ml VEGF-C, Western blot (FIG. 1)
Experimental: For this assay, porcine aortic endothelial (PAE) cells stably expressing human VEGFR-3 were grown to confluency on 10 cm dishes. The cells were serum starved overnight and the media replaced with fresh serum-free media. […] This was followed by the addition of VEGF-C to a final concentration of 100 ng/ml and the cells incubated for 10 min at 37° C., after which they were washed with ice-cold PBS and then lysed. Cell lysates containing protease inhibitors were subjected to immunoprecipitation with an antibody specific for VEGFR-3 and the immunoprecipitates separated by SDS-PAGE. Proteins were transferred to a nitrocellulose membrane, and then probed first with a phospho-tyrosine antibody and then a VEGFR-3 antibody.

Work on `COc1cc2ncnc3c2cc1OCCCCCCOc1c(Cl)cccc1N3` [4,6-ethanediylidene-19H-pyrimido[4,5-b][6,13,1]benzodioxaazacyclo-pentadecine, 15-chloro-8,9,10,11,12,13-hexahydro-20-methoxy-] yielded a melting point of 255.5 to 260.2 °C.
For `COc1cc2ncnc3c2cc1OCCCCCN(C)Cc1ccc(Br)cc1N3` [Compound 2, 4,6-ethanediylidenepyrimido[4,5-b][6,1,12]benzoxadiazacyclo-pentadecine, 17-bromo-8,9,10,11,12,13,14,19-octahydro-20-methoxy-13-methyl-], the “VEGF stimulation of Erk1/2” value [1] was “did not interfere”, the “% Relative Area 2-3” value (Xenopus tadpoles; 0.3125 μM) was 37 ± 20% and the “% Relative Max Migration” value (Xenopus tadpoles; 0.3125 μM) was 73 ± 22%. For the same compound, the “% embryos with reduced migration” value (Xenopus tadpoles; 0.3125 μM) was 57%, the “% Relative Area 2-3” value (Xenopus tadpoles; 1.25 μM) was 20 ± 8% and the “% Relative Max Migration” value (Xenopus tadpoles; 1.25 μM) was 47 ± 5%. For the same compound, the “% embryos with reduced migration” value (Xenopus tadpoles; 1.25 μM) was 63%, the “% Relative Area 2-3” value (Xenopus tadpoles; 5 μM) was 123 ± 32% and the “% Relative Max Migration” value (Xenopus tadpoles; 5 μM) was 121 ± 3%. The “% embryos with reduced migration” value (Xenopus tadpoles; 5 μM) was 40%, the “% Relative Area 2-3” value (Xenopus tadpoles; 20 μM) was 19 ± 8% and the “% Relative Max Migration” value (Xenopus tadpoles; 20 μM) was 35 ± 1%. The “tadpoles that developed edema” value (Xenopus tadpoles; 20 uM, live screening) was 10%, the “% embryos with reduced migration” value (Xenopus tadpoles; 20 μM) was 60% and the “% Relative Area 2-3” value (Xenopus tadpoles; 80 μM) was 56 ± 15%. The “% Relative Max Migration” value (Xenopus tadpoles; 80 μM) was 67 ± 21%, the “% embryos with reduced migration” value (Xenopus tadpoles; 80 μM) was 80% and the tadpoles with hemorrhages (Xenopus tadpoles; concentrations >50 uM, live screening) was 30%. The “effects in Xenopus tadpole model” value (Xenopus tadpoles; in vivo) was “phenocopy the effects of VEGF-C knockout”, the “Lymphatic Endothelial Cell (LEC) migration in tadpoles” value (Xenopus tadpoles; stage 35-36 tadpoles) was “dose dependently inhibits” and the “phosphorylation of Erk1/2 by VEGF-C” value [2] was “prevented”. For the same compound, the IC50 (VEGFR3 [3]) was 18.2 nM and the “VEGF-C induced VEGFR-3 phosphorylation” value (VEGFR3 [4]) was “dose dependent reduction”.
